Test results published in patent US9527827B2, “C-9 oxygen functionalized labdane derivates” (COUNCIL OF SCIENTIFIC & INDUSTRIAL RESEARCH, priority 2011, dated 2016).
≈ marks a conversion by molar mass, not a printed value. Entries after “also recorded” stand apart in the source; their conditions may differ.

Columns and labels:
M. tuberculosis H37Rv = conditions: cited from earlier work
[1] = tested on: prostaglandin-induced contractions; conditions: cited from earlier work
[2] = tested on: Mycobacterium tuberculosis H37Ra; experiment: In vitro anti-mycobacterial activity against M. tuberculosis; type: cell-based; conditions: for IC50 / IC90: Mycobacterium tuberculosis, M. tuberculosis H37Ra; for IC50 / IC90 / Inhibition of / anti-tubercular activity against Mycobacterium tuberculosis (in words): in vitro
Procedure: All the isolated compounds and whole acetone extract were tested for their in vitro effect against Mycobacterium tuberculosis H37Ra.

Mycobacterium smegmatis = experiment: Specificity test against M. smegmatis (XTT reduction microplate assay); type: cell-based
Escherichia coli = experiment: Specificity test against E. coli (growth, absorbance at 620 nm); type: cell-based

C=CC(=C)CCC1C(=C)CC[C@H]2[C@@](C)(C(=O)O)[C@H](OC(C)=O)CC[C@]12C (some centres unmarked) [juniperexcelsic acid]
MIC (M. tuberculosis H37Rv): 14.4 µg/mL (≈ 39.9 µM)

leucasperone A
Inhibition of prostaglandin-induced contractions (in words) [1]: showed inhibition

C[C@@H]1CC[C@H]2C(C)(C)CCC[C@]2(C)[C@@]1(O)CC/C(=C/CO)CO [Compound 3]
IC50 [2]: 9.8 µg/mL (≈ 30.2 µM)
IC90 [2]: 46.5 µg/mL (≈ 143 µM)
Inhibition of / anti-tubercular activity against Mycobacterium tuberculosis (in words) [2]: significant inhibition; also recorded: effective
Specificity / selectivity for M. tuberculosis (in words) ([2]; versus E. coli and M. smegmatis): specifically active; also recorded: selective inhibitors
Percent inhibition, M. smegmatis (Mycobacterium smegmatis; tested at IC90 found against M. tuberculosis, mean ± S.D. of three experiments): 30.57 ± 3.58%
Percent inhibition, E. coli (Escherichia coli; tested at IC90 found against M. tuberculosis, 6 h incubation, mean ± S.D. of three experiments): 11.47 ± 1.65%

CO[C@H]1/C=C/O[C@@]2(C)Oc3c(C)c(O)c4c(O)c(c(/C=N/N5CCN(C)CC5)c(O)c4c3C2=O)NC(=O)/C(C)=C\C=C\[C@H](C)[C@H](O)[C@@H](C)[C@@H](O)[C@@H](C)[C@H](OC(C)=O)[C@@H]1C [Rifampicin, reference compound]
IC90 (Mycobacterium smegmatis; Mycolicibacterium smegmatis, reference drug, value is IC90, not percent inhibition): 0.2 ± 0.03 µg/mL (≈ 0.243 µM)
IC90 (Escherichia coli; Escherichia coli, reference drug, value is IC90, not percent inhibition): 0.5 ± 0.04 µg/mL (≈ 0.608 µM)

NNC(=O)c1ccncc1 [Isoniazid, reference compound]
IC90 [2]: 0.05 ± 0.003 µg/mL (≈ 0.365 µM)

C=C[C@]1(C)C=C2C(=O)C[C@H]3C(C)(C)[C@@H](O[C@@H]4O[C@H](CO)[C@@H](O)[C@H](O)[C@H]4O[C@@H]4O[C@H](CO)[C@@H](O)[C@H](O)[C@H]4O)CC[C@]3(C)[C@H]2CC1 [leucasperosides B, leucasperoside B]
Inhibition of prostaglandin-induced contractions (in words) [1]: showed inhibition

C=C[C@](C)(O)CC[C@@H]1[C@@]2(C)CCCC(C)(C)[C@H]2CC[C@@]1(C)O [Compound 4]
IC50 [2]: 5.95 µg/mL (≈ 19.3 µM)
IC90 [2]: 10.8 µg/mL (≈ 35.2 µM)
Inhibition of / anti-tubercular activity against Mycobacterium tuberculosis (in words) [2]: potent anti-tubercular activity; also recorded: significant inhibition; also recorded: effective

C=C[C@]1(C)C=C2C(=O)C[C@H]3C(C)(C)[C@@H](O[C@@H]4O[C@H](CO)[C@@H](O)[C@H](O)[C@H]4O[C@@H]4O[C@H](CO[C@@H]5O[C@H](CO)[C@@H](O)[C@H](O)[C@H]5O)[C@@H](O)[C@H](O)[C@H]4O)CC[C@]3(C)[C@H]2CC1 [leucasperosides A, leucasperoside A]
Inhibition of prostaglandin-induced contractions (in words) [1]: showed inhibition

linifolioside
Inhibition of prostaglandin-induced contractions (in words) [1]: showed inhibition
